The record followed here is patent US20030143199A1, “Use of STAT-6 inhibitors as therapeutic agents” (priority 2001, published 2003).

“Also recorded” adds a separate entry of the source.

Data set [1] deals with malignant lymphocytes from two patients with chronic lymphocytic leukemia [CLL]. Kind of data set: Effect of the p53 inhibitory compounds on B-CLL viability (PI exclusion by FACS, MTT), 3 days culture. It counts as cell-based. The conditions noted are these: FIG. 1. The source says:
The malignant lymphocytes from two patients with chronic lymphocytic leukemia [CLL] were isolated by ficoll-hypaque sedimentation and suspended at a density of 1 million cells per milliliter in RPMI 1640 medium supplemented with 10% fetal bovine serum. Two hundred microliter aliquots of cells were dispersed in the wells of culture plates containing the indicated final concentrations of either PFT-α (“PFT-open”) or IBT (PFT-closed). After 3 days culture, viable cells were enumerated by fluorescence-activated cell sorting [FACS] after staining with propidium iodide [PI]. Viable cells excluded the dye [open circles]. In addition, cell metabolism was assessed by the ability of the cells to […] the tetrazolium dye MTT [closed squares].
A general note: A flow cytometer gives signals particle by particle.

Data set [2] has as its system BEAS-2B human airway epithelial cells. In words: Viability of treated cells at end of incubation in the 12/15-lipoxygenase promoter/luciferase STAT-6 reporter assay. The note with it: 10 μM for 1 hour, then IL-4 10 ng/ml, 16 hours. It counts as cell-based. On the procedure:
The BEAS-2B human airway epithelial cells were transiently transfected with the human 12/15-lipoxygenase promoter/luciferase reporter gene. Cells were then incubated with the IBT analogs (FIG. 5) at 10 μM for 1 hour, followed by IL-4 (10 ng/ml). After 16 hours, luciferase was measured using a chemiluminometer. The STAT-6 induction was normalized using the B-gal results as “background.” The viability of the treated cells was visually verified at the end of the incubation, and found to be >95%. Results shown in FIG. 3 are the mean of duplicate measurements.
Human airway epithelial cells, BEAS-2B, were transiently transfected with the human 12/15-lipoxygenase promoter/luciferase reporter plasmid with and without a STAT6 expressing plasmid. The cells were incubated with 10 μM of STAT-6 (Control Sample 1); 10 μM STAT-6 (Sample 2); a mixture of STAT-6 and compound 8 (Sample 3); and compound 8 alone (Sample 4); for 1 hour. This was followed treatment with 10 ng/mL of IL-4 (except control). After 16 hours, luciferase was measured using a chemiluminometer. The STAT-6 induction was normalized using the β-gal results as “background”. The viability of the treated cells was visually verified at the end of the incubation, and found to be>95%. The results are illustrated in FIG. 7.
On the technique in general: A reporter such as luciferase makes a cellular process visible.

The test system of data set [3] is Chronic lymphocytic leukemia [CLL] cells. In words: Protection against spontaneous apoptosis and fludarabine-induced apoptosis (PI negative / DiOC6 high cells by FACS). It counts as cell-based. The conditions noted are these: one micromolar, 3 days culture, FIG. 2. On the procedure: Chronic lymphocytic leukemia [CLL] cells were cultured for 3 days as described in Example 2. Some of the cultures were supplemented with one micromolar of PFT-open or PFT-closed, as indicated. In the experiment shown in the bottom panel of FIG. 2, some of the cultures also contained the cytotoxic adenine nucleoside analog fludarabine [abbreviated F-AraA]. Fludarabine is the first line treatment for CLL, and the toxicity of the drug is dependent upon the p53 pathway. To assess healthy, viable cells, staining was done with both PI, as indicated in Example 2, and with the mitochondrial dye DiOC6. Cells that were both PI negative and DIOC6 high were enumerated by FACS.

Data set [4] has as its system Human Hodgkin's lymphoma cells L1236. In words: Effect of IBT and interferon on Hodgkin's lymphoma cells (CellTiter 96 MTS viability). The format is cell-based. The conditions noted are these: 3, 5 or 7 days; IBT at doses up to 10 μM; FIG. 12. On the procedure: Human Hodgkin's lymphoma cells L1236 were incubated for 3, 5 or 7 days in complete RPMI1640 and 10% FBS. The cells were plated at 3×10^5 cells/mL.
The effect was more pronounced after 7 days of incubation.
The results are illustrated in FIG. 12. The y-axis represent the normalized viability when compared to control cells incubated with 0.1% DMSO with no interferon or IBT added, adjusted at 100%. The cell viability was determined using CellTiter 96 Aqueous One Solution Cell Proliferation Assay (Promega). (CellTiter 96 uses a novel tetrazolium compound (MTS) and an electron coupling reagent, phenazine ethosulfate.)

Data set [5] can be described thus: Cyclization of PFT-α to IBT in DMSO/water dilutions, reversed phase HPLC over time. The format is physicochemical. The conditions noted are these: for % cyclized to IBT: DMSO stock diluted with water, 25° C., reversed phase HPLC. On the procedure:
The preparation of PFT-α was accomplished as shown in Scheme 1 by reacting 4-methyl-2-bromoacetophenone with 2-amino-4,5,6,7-tetrahydrobenzothiazole. Upon recrystallization of the PFT-α from isopropyl alcohol, it was noticed that PFT-α readily ring-closed completely to the imidazo[2, 1-b]benzothiazole (IBT). Therefore, a subsequent investigation was undertaken to study the propensity of PFT-α to ring-close in protic solvents. […] Thus, PFT-α was dissolved in DMSO and water dilutions were made from this stock.

As for `Cc1ccc(-c2cn3c4c(sc3n2)CCCC4)cc1` [IBT], the “CLL survival / toxicity (viable cells by PI exclusion and MTT)” value in data set [1] was “non-toxic at concentrations up to 100 micromolar”. In data set [2], the “Viability of the treated cells, visually verified at the end of the incubation” value is greater than 95%. Further, the “Effect on untreated CLL cells (spontaneous apoptosis)” value in data set [3] was “nearly equivalent effects”. The “Protective effect on CLL cells treated with F-AraA (fludarabine)” value in data set [3] (with fludarabine, compared with PFT-α) is on record as “less protective effects”. The “Anti-proliferative / growth-inhibitory effect on L1236 cells (normalized viability)” value in data set [4] was “only a small anti-proliferative effect”.

In the case of `Cc1ccc(C(=O)Cn2c3c(sc2=N)CCCC3)cc1` [PFT-α], the “% cyclized to IBT” value in data set [5] (0 h) is reported as 5%; in data set [5] (12 h), 47%; in data set [5] (24 h), 69%; in data set [5] (48 h), 92%. For the same molecule, the “Stability / ring closure in protic solvents and aqueous solution (in words)” value in data set [5] (protic solvents, room temperature, aqueous solution) is on record as “unstable in aqueous solution under in vivo conditions; also recorded: begins cyclizing at room temperature immediately upon dissolution in protic solvents”. The “CLL survival / toxicity (viable cells by PI exclusion and MTT)” value in data set [1] is reported as “dose-dependently reduced CLL survival”. Further, the “Effect on untreated CLL cells (spontaneous apoptosis)” value in data set [3] is reported as “nearly equivalent effects”.
